From patent US9822112B2, “Heteroarylene-bridged benzodiazepine dimers, conjugates thereof, and methods of making and using” (priority 2015, dated 2017)

Legend:
Experiment in all cases: Cytotoxic activity of dimers (ATP luminescence or MTS cell proliferation assay)
Format in all cases: cell-based
[1] = system: N87 gastric cancer cell line; conditions: N87 cells; free dimer; 72 h incubation
Procedure: (§1) The cytotoxic activity of dimers of this invention can be tested against various cancer cell lines, such as H226 lung cancer, DMS 79 lung cancer, H187 lung cancer, N87 gastric cancer, 786-O renal cancer, and/or OVCAR3 ovarian cancer cell lines. The ability of dimers to inhibit cell proliferation can be measured by either an ATP luminescence assay or an MTS cell proliferation assay.
(§2) This is a general procedure for an ATP luminescence assay: Cells are seeded at 1×10^3 cells/well in 96-well plates for 3 h for ATP CellTiterGlo™ assays, respectively. Serial dilutions (1:3) of compounds are added to the wells. Plates are allowed to incubate for 72 h. A CellTiterGlo™ cell viability kit from Promega is used to measure ATP content of cells treated with test compounds following manufacturer's instruction. A decrease in the ATP content is a measure of decrease in cellular viability. The EC50 value—the concentration at which an agent reduces cell viability by 50% of the maximum effect—can be calculated using PRISM™ software, version 5.0 (GraphPad Software, La Jolla, Calif., USA).
(§3) The MTS cell proliferation assay was performed as follows: CellTiter 96 Aqueous Non-Radioactive Cell proliferation Kit from Promega (Madison, Wis.) is used to determine the number of viable cells in cell proliferation assay. Tumor cells are plated at certain seeding densities in sterile 384-well black clear bottom Matrix plates at 40 μL per well and incubated overnight at 37° C. in 5% CO2 before assaying. On the next day, one set of cell plates (10 plates) is used to determine time zero cell density, and 3-(4,5-dimethylthiazol-2-yl)-5-(3-carboxymethoxyphenyl)-2-(4-sulfophenyl)-2H-tetrazolium is added at 4 μL/well into 10 plates followed by incubation at 37° C. in 5% CO2 for three hours. This tetrazolium reagent is bioreduced by […] to form a formazan product which is soluble in aqueous solution. Absorbance at 490 nm is measured on an Envision reader (Perkin Elmer, Boston, Mass.). On the same day, compounds are added into remaining cell plates (T72 plates) and incubated at 37° C. in 5% CO2. After 72 hours, 4 μL MTS reagents are then added into those cell plates. The plates are further incubated at 37° C. in 5% CO2 for three hours and the absorbance values at A490 were measured on an Envision reader.

[2] = system: H187 lung cancer cell line; conditions: Homo sapiens, NCI-H187; H187 cells; free dimer; 72 h incubation
Procedure: as §1, §2, §3

[3] = system: DMS 79 lung cancer cell line; conditions: Homo sapiens; DMS 79 cells; free dimer; 72 h incubation
Procedure: as §1, §2, §3

Row | SMILES | IC50 [1] [nM] | IC50 [2] [nM] | IC50 [3] [nM]
1 | COc1cc2c(cc1OCc1cc(CO)cc(COc3cc4c(cc3OC)C(=O)N3Cc5ccccc5C[C@H]3C=N4)n1)N=C[C@@H]1Cc3ccccc3CN1C2=O [IIa-08] | 2.71 |  | 
2 | COc1cc2c(cc1OCc1cccc(COc3cc4c(cc3OC)C(=O)N3Cc5cccnc5C[C@@H]3C=N4)n1)N=C[C@@H]1Cc3ccccc3CN1C2=O [Dimer 100] | 0.1 |  | 
3 | COc1cc2c(cc1OCc1cc(Cl)cc(COc3cc4c(cc3OC)C(=O)N3Cc5ccccc5C[C@H]3C=N4)n1)N=C[C@@H]1Cc3ccccc3CN1C2=O [IIa-13] | 0.03 |  | 
4 | COc1cc2c(cc1OCc1cccc(COc3cc4c(cc3OC)C(=O)N3Cc5cc(N)ccc5C[C@H]3C=N4)n1)N=C[C@@H]1Cc3ccccc3CN1C2=O [IIa-03] | 0.03 | 0.002 | 0.002
5 | COc1cc2c(cc1OCc1cccc(COc3cc4c(cc3OC)C(=O)N3Cc5cccnc5C[C@H]3C=N4)n1)N=C[C@@H]1Cc3ccccc3CN1C2=O [IIa-16] | 0.08 |  | 
6 | COc1cc2c(cc1OCc1cccc(COc3cc4c(cc3OC)C(=O)N3Cc5ccccc5C[C@H]3C=N4)n1)N=C[C@@H]1Cc3ccccc3CN1C2=O [IIa-01] | 0.02 | 0.001 | 0.001
7 | COc1cc2c(cc1OCc1cc(O)cc(COc3cc4c(cc3OC)C(=O)N3Cc5ccccc5C[C@H]3C=N4)n1)N=C[C@@H]1Cc3ccccc3CN1C2=O [IIa-11] | 4.92 |  | 
8 | COc1cc2c(cc1OCc1cccc(COc3cc4c(cc3OC)C(=O)N3Cc5ccccc5C[C@H]3CN4)n1)NC[C@@H]1Cc3ccccc3CN1C2=O [IIa-15] | 2.88 |  | 
9 | COc1cc2c(cc1OCc1cc(COc3cc4c(cc3OC)C(=O)N3Cc5ccccc5C[C@H]3C=N4)c3ccccc3n1)N=C[C@@H]1Cc3ccccc3CN1C2=O [IIa-07] | 0.25 |  | 
10 | COc1cc2c(cc1OCc1cncc(COc3cc4c(cc3OC)C(=O)N3Cc5ccccc5C[C@H]3C=N4)c1)N=C[C@@H]1Cc3ccccc3CN1C2=O [IIa-06] | 0.14 |  | 
